Results published in patent publication US20080039522A1, “Composition Containing a Complex Comprising a Metal Ion and a Carboxylate Ligand Having Anti-Inflammatory Activity” (Medical Therapies Limited, priority 2004, published 2008).

Experiments:
[1] = tested on: Sprague-Dawley rats; test: Acute gastric ulceration after oral administration; type: in vivo, rat; conditions: rat, in vivo
Protocol: Gastrointestinal Ulceration: To assess gastric damage, rats (n=4 per group) were fasted overnight with free access to water prior to the oral administration (non-anaesthetized) of the Test Samples or Test Compositions via oral gavage. The controls were dosed with CMC (2%) solution. Three hours after dosing, the rats were euthanised and the stomach was excised and opened by incision along the greater curvature. The stomach was rinsed, submerged in 10% formaldehyde for 1 h and examined to determine the extent of macroscopic gastric damage.
The total volume of the MCT or carbopol paste compositions administered per dose in the assessment of gastrointestinal ulceration was no more than 0.5 g.
In order to illustrate the adverse effects of decomposition of the copper complex in the formulation, the gastric toxicity of IndoH, Cu-acetate, a physical mixture of Cu-acetate and IndoH and [Cu2(Indo)4(DMF)2] were tested at equivalent doses of Indo (10 mg kg^−1) and/or Cu in the MCT paste or a 2% (w/v) aqueous solution of carboxymethylcellulose (CMC). The MCT paste formulations were prepared as described in Example 3 but using IndoH, Cu-acetate, a physical mixture of Cu-acetate and IndoH, or [Cu2(Indo)4(DMF)2] instead of [Cu2(Indo)4(OH2)2]. The gastric toxicity was tested as described above. The results of these experiments are illustrated in FIG. 3.
In further experiments designed to test the toxicity of solutions of the Cu complex, the [Cu2(Indo)4(DMF)2] complex was dissolved in DMF and gastric toxicities were assessed. […] Similar results would be expected using other complexes, including [Cu2(Indo)4(OH2)2], in a non-colloidal solution.

[2] = tested on: Sprague-Dawley rats; test: Anti-inflammatory activity (rat paw oedema) after subcutaneous or intramuscular injection; type: in vivo
Protocol: (§1) In Vivo Anti-inflammatory Activity and Gastric Toxicity. Groups of four rats were used for all studies. All doses were calculated as equivalent concentrations of Indo. […] For subcutaneous and intramuscular administration, rats were injected with 125-200 μL volumes of the test compositions (IndoH or [Cu2(Indo)4(OH2)2] in MCT oil). The control cohort was injected with equivalent volumes of neat MCT. Subcutaneous injections were made in the lower dorsal surface and intramuscular injections were made in the right hind thigh muscle. Inflammation was induced 1 h after dosing by injection of the formulation by an injection of carrageenan (0.1 mL, 1% w/v in isotonic saline) into the plantar region of the hind paw.
Paw volume was measured prior to dosing and at 3 h after carrageenan injection by immersing the left hind paw (to the lateral malleus) into a vessel filled with water as described in Example 5. Immediately after paw volume measurements, 24 h-fasted animals were euthanised and the stomach was excised and opened by incision along the greater curvature.

[3] = tested on: Sprague-Dawley rats; test: Observation of the site of the subcutaneous injection; type: in vivo, rat; conditions: subcutaneous, in MCT oil, all doses
Protocol: as §1

COc1ccc2c(c1)c(CC(=O)[O-])c(C)n2C(=O)c1ccc(Cl)cc1.COc1ccc2c(c1)c(CC(=O)[O-])c(C)n2C(=O)c1ccc(Cl)cc1.COc1ccc2c(c1)c(CC(=O)[O-])c(C)n2C(=O)c1ccc(Cl)cc1.COc1ccc2c(c1)c(CC(=O)[O-])c(C)n2C(=O)c1ccc(Cl)cc1.O.O.[Cu+2].[Cu+2] [[Cu2(Indo)4(OH2)2]]
gastric toxicity as % of that of an equivalent dose of IndoH [1]: approximately 8% | reduction of gastric toxicity versus free IndoH [1]: 50% | Percent inhibition ([2]; intramuscular, fasting rats, 2 mg/kg equivalent dose of Indo): 0% | Percent inhibition ([2]; intramuscular, fasting rats, 10 mg/kg equivalent dose of Indo): 47.7% | Percent inhibition ([2]; intramuscular, fasting rats, 20 mg/kg equivalent dose of Indo): 49.7% | Percent inhibition ([2]; subcutaneous, 1 mg/kg of Indo, fasting): 4% | Percent inhibition ([2]; subcutaneous, 2 mg/kg of Indo, fasting): 6% | Percent inhibition ([2]; subcutaneous, 5 mg/kg of Indo, fasting): 24.9% | Percent inhibition ([2]; subcutaneous, 7.5 mg/kg of Indo, non-fasting): 47% | Percent inhibition ([2]; subcutaneous, 10 mg/kg of Indo, fasting): 35.8% | Percent inhibition ([2]; subcutaneous, 20 mg/kg of Indo, fasting): 33.9% | Percent inhibition ([2]; subcutaneous, 20 mg/kg of Indo, non-fasting): 31.6% | dose at which the anti-inflammatory effect plateaus ([2]; subcutaneous, in MCT oil): 5-7.5 mg kg^−1 of Indo | adverse effect at the site of the injection [3]: None of the rats exhibited soreness, swelling, redness or any other adverse effect
